IC50 data for 23 compounds are collected here from US7495104B2, “Quinoline or quinazoline derivatives inhibiting auto-phosphorylation of fibroblast growth factor receptors” (Kirin Beer Kabushiki Kaisha, priority 2001, dated 2009).

The target of this test is Bek (Homo sapiens, UniProt P21802). Briefly: Inhibitory activity against Bek-autophosphorylation using ELISA method in OCUM-2MD3 cells. Type of test: cell-based. As to conditions: 1 hr with compound, read-out: IC50 (concentration necessary for inhibiting 50% of Bek-phosphorylation). In a few lines: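 OCUM-2MD3 human scirrhous gastric cancer cells in 0.1% FCS were exposed to compound for 1 hr at 37° C, then lysed. Phospho-tyrosine proteins were captured with anti-phosphotyrosine antibody, probed with anti-Bek antibody and peroxidase read-out (A450). Positive control (1000 nM) set 0%, untreated 100%; IC50 from multi-level dilutions.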
Sequence of Bek (P21802 431-767 limits assumed): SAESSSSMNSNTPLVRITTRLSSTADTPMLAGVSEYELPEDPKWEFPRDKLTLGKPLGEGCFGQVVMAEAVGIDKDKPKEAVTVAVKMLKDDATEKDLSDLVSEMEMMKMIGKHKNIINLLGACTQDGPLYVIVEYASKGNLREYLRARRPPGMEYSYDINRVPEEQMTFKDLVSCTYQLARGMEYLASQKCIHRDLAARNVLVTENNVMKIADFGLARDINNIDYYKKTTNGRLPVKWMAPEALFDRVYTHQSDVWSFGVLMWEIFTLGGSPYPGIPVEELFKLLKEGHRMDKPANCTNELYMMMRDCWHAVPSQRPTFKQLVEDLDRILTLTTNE
On the technique in general: ELISA stands for enzyme-linked immunosorbent assay.
On to `COc1cc2nccc(Oc3ccc(NC(=O)NCCC(C)(C)C)cc3)c2cc1OCCN(C)C` [Compound 222, 1-{4-[6-(2-Dimethylamino-ethoxy)-7-methoxy-quinolin-4-yloxy]-phenyl}-3-(3,3-dimethyl-butyl)-urea], for which the IC50 was 24.3 nM. In the case of `COc1cc2c(Oc3ccc(Nc4ccc(C(C)(C)C)cc4)c(F)c3)ccnc2cc1OCCCN1CCC(CO)CC1` [Compound 290, [1-(3-{4-[4-(4-Tert-butyl-phenylamino)-3-fluoro-phenoxy]-6-methoxy-quinolin-7-yloxy}-propyl)-piperidin-4-yl]-methanol], the IC50 was determined as 233 nM. The result for `COc1cc2c(Oc3ccc(Nc4ccc(C(C)(C)C)cc4)cc3F)ccnc2cc1OCCCN1CCC(CCO)CC1` [Compound 272, 2-[1-(3-{4-[4-(4-Tert-butyl-phenylamino)-2-fluoro-phenoxy]-6-methoxy-quinolin-7-yloxy}-propyl)-piperidin-4-yl]-ethanol] reads 151 nM.

Take `COc1cc2nccc(Oc3ccc(Nc4ccc(F)cc4)cc3)c2cc1OC` [Compound 4, [4-(6,7-Dimethoxyquinolin-4-yloxy)phenyl]-(4-fluorophenyl)amine]: the IC50 amounted to 3730 nM. The result for `COc1cc2nccc(Oc3ccc(Nc4ccc(C(C)(C)C)cc4)cc3)c2cc1OCCN1CCC(CO)CC1` [Compound 355, [1-(2-{4-[4-(4-Tert-butyl-phenylamino)-phenoxy]-7-methoxy-quinolin-6-yloxy}-ethyl)-piperidin-4-yl]-methanol] reads 403 nM; that for `COc1cc2c(Oc3ccc(NC(=O)NCCC(C)(C)C)c(Cl)c3)ccnc2cc1OCC1CCN(C)CC1` [Compound 169, 1-{2-Chloro-4-[6-methoxy-7-(1-methyl-piperidin-4-ylmethoxy)-quinolin-4-yloxy]-phenyl}-3-(3,3-dimethyl-butyl)-urea], 25.2 nM; that for `C=C[C@H]1CN2CCC1C[C@@H]2COc1cc2nccc(Oc3ccc(Nc4ccc(C(C)(C)C)cc4)cc3)c2cc1OC` (stereo in doubt) [Compound 57, (4-Tert-butylphenyl)-{4-[6-methoxy-7-(5-vinyl-1-azabicyclo-[2.2.2]oct-2-ylmethoxy)quinolin-4-yloxy]phenyl}amine], 3830 nM. Then `COc1cc2c(Oc3ccc(NC(=O)NCCC(C)(C)C)cc3)ccnc2cc1OCC(=O)N1CCOCC1` [Compound 375, 1-(3,3-Dimethyl-butyl)-3-{4-[6-methoxy-7-(2-morpholin-4-yl-2-oxo-ethoxy)-quinolin-4-yloxy]-phenyl}-urea], with 28 nM; and `CCCN(CCO)CCOc1cc2nccc(Oc3ccc(NC(=O)NCCC(C)(C)C)cc3)c2cc1OC` [Compound 369, 1-(3,3-Dimethyl-butyl)-3-[4-(7-{2-[(2-hydroxy-ethyl)-propyl-amino]-ethoxy}-6-methoxy-quinolin-4-yloxy)-phenyl]-urea], with 42.3 nM.

Regarding `COc1cc2c(Oc3ccc(NC(=O)NCCC(C)(C)C)c(Cl)c3)ccnc2cc1OCCCN1CCC[C@H]1CO` [Compound 208, 1-(2-Chloro-4-{7-[3-(2-hydroxymethyl-pyrrolidin-1-yl)-propoxy]-6-methoxy-quinolin-4-yloxy}-phenyl)-3-(3,3-dimethyl-butyl)-urea], the IC50 came out at 27 nM. As for `COc1cc2c(Oc3ccc(NC(=O)NCCC(C)(C)C)cc3)ccnc2cc1OCCN(CCO)Cc1ccccc1` [Compound 368, 1-[4-(7-{2-[Benzyl-(2-hydroxy-ethyl)-amino]-ethoxy}-6-methoxy-quinolin-4-yloxy)-phenyl]-3-(3,3-dimethyl-butyl)-urea], the IC50 worked out at 157 nM.

With `COc1cc2c(Oc3ccc(NC(=O)NCCC(C)(C)C)cc3)ccnc2cc1OCCCN1CCC(N2CCCC2)CC1` [Compound 249, 1-(3,3-Dimethyl-butyl)-3-(4-{6-methoxy-7-[3-(4-pyrrolidin-1-yl-piperidin-1-yl)-propoxy]-quinolin-4-yloxy}-phenyl)-urea], the IC50 is less than 10 nM.

In the case of `COc1cc2nccc(Oc3ccc(Nc4ccc(C(C)(C)C)cc4)cc3OC)c2cc1OC` [Compound 15, (4-Tert-butylphenyl)-[4-(6,7-dimethoxyquinolin-4-yloxy)-3-methoxyphenyl]amine], the IC50 was 430 nM.

For `CCCN(CCO)CCOc1cc2nccc(Oc3ccc(Nc4ccc(C(C)(C)C)cc4)cc3)c2cc1OC` [Compound 366, 2-[(2-{4-[4-(4-Tert-butyl-phenylamino)-phenoxy]-6-methoxy-quinolin-7-yloxy}-ethyl)-propyl-amino]-ethanol], the IC50 was determined as 257 nM. On to `COc1cc2c(Oc3ccc(Nc4ccc(C(C)(C)C)cc4)cc3Cl)ccnc2cc1OCCCN1CCC(O)CC1` [Compound 309, 1-(3-{4-[4-(4-Tert-butyl-phenylamino)-2-chloro-phenoxy]-6-methoxy-quinolin-7-yloxy}-propyl)-piperidin-4-ol], for which the IC50 came to 211 nM.

As for `COc1cc2c(Oc3ccc(Nc4ccc(C(C)(C)C)cc4)cc3)ccnc2cc1OCC(O)CN1CC(C)OC(C)C1` (centres unmarked) [Compound 253, 1-{4-[4-(4-Tert-butyl-phenylamino)-phenoxy]-6-methoxy-quinolin-7-yloxy}-3-(2,6-dimethyl-morpholin-4-yl)-propan-2-ol], the IC50 is 28.5 nM. In the case of `COc1cc2c(Oc3ccc(NC(=O)NCCC(C)(C)C)c(F)c3)ccnc2cc1OCCCN1CCC(O)CC1` [Compound 302, 1-(3,3-Dimethyl-butyl)-3-(2-fluoro-4-{7-[3-(4-hydroxy-piperidin-1-yl)-propoxy]-6-methoxy-quinolin-4-yloxy}-phenyl)-urea], the IC50 came out at 26.6 nM. The result for `COc1cc2nccc(Oc3ccc(Nc4ccc(C(C)(C)C)cc4)cc3)c2cc1OCC(O)CN1CCOCC1` (centres unmarked) [Compound 213, 1-{4-[4-(4-Tert-butyl-phenylamino)-phenoxy]-7-methoxy-quinolin-6-yloxy}-3-morpholin-4-yl-propan-2-ol] reads 126 nM; that for `COc1cc2c(Oc3ccc(NC(=O)NCCC(C)(C)C)cc3)ccnc2cc1OCCCN1CCC(Cc2ccccc2)CC1` [Compound 247, 1-(4-{7-[3-(4-Benzyl-piperidin-1-yl)-propoxy]-6-methoxy-quinolin-4-yloxy}-phenyl)-3-(3,3-dimethyl-butyl)-urea], 81.9 nM. As for `COc1cc2c(Oc3ccc(NC(=O)NCCC(C)(C)C)c(Cl)c3)ccnc2cc1OCCCN1CCOCC1` [Compound 205, 1-{2-Chloro-4-[6-methoxy-7-(3-morpholin-4-yl-propoxy)-quinolin-4-yloxy]-phenyl}-3-(3,3-dimethyl-butyl)-urea], the IC50 came out at 25.5 nM. Turning to `COc1cc2c(Oc3ccc(NC(=O)NCCC(C)(C)C)c(Cl)c3)ccnc2cc1OCCCCCl` [Compound 162, 1-{2-Chloro-4-[7-(4-chloro-butoxy)-6-methoxy-quinolin-4-yloxy]-phenyl}-3-(3,3-dimethyl-butyl)-urea], the IC50 was found to be 252 nM.

`COc1cc2c(Oc3ccc(Nc4ccc(C(C)(C)C)cc4)cc3F)ccnc2cc1OCCCN1CCC(CO)CC1` [Compound 270, [1-(3-{4-[4-(4-Tert-butyl-phenylamino)-2-fluoro-phenoxy]-6-methoxy-quinolin-7-yloxy}-propyl)-piperidin-4-yl]-methanol]: the IC50 came out at 303 nM. With `COc1cc2c(Oc3ccc(Nc4ccc(C(C)(C)C)cc4)c(Cl)c3)ccnc2cc1OCCCN1CCC(O)CC1` [Compound 276, 1-(3-{4-[4-(4-Tert-butyl-phenylamino)-3-chloro-phenoxy]-6-methoxy-quinolin-7-yloxy}-propyl)-piperidin-4-ol], the IC50 is 1130 nM.
